Laboratory results as given in patent US6797461B2, “Tryptase substrates and assay for tryptase activity using same” (Promega Corporation, priority 2000, dated 2004).
Residues, ends and D or L forms follow the SMILES beside them. *: point of attachment. ACC = NC(=O)Cc1cc(=O)oc2cc(N*)ccc12

Experiments:
Format in all cases: biochemical
[1] = biological target: T1, recombinant human β-II tryptase (lung tryptase) (Homo sapiens, N132K); assay: Single substrate kinetic analysis of fluorogenic ACC substrates, lung (β-II) tryptase
T1 construct: Secreted mature βI- and βII-tryptases were purified to homogeneity; made in house; host or cells: Pichia pastoris GS115
T1 sequence (Q15661 31-275 N132K): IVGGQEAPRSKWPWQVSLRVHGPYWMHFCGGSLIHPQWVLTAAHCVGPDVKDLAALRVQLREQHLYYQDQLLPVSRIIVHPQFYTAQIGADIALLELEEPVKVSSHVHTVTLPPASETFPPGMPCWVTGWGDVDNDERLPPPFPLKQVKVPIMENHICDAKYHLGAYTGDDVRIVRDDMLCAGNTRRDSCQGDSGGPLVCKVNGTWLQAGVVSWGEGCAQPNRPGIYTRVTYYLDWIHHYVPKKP
Description: (§1) βI- and βII-tryptase concentrations ranged from 5 nM to 15 nM. The final concentration of substrate ranged from 5 μM to 200 μM; the concentration of DMSO in the assay was less than 5%. Hydrolysis of ACC substrates was monitored fluorometrically with an excitation wavelength of 380 nm and an emission wavelength of 460 nm on a Fluoromax-2 spectrofluorimeter.
(§2) Tryptase activity was monitored at 30° C. in assay buffer containing 100 mM HEPES, pH 7.5, 10% w/v glycerol, and 0.1 mg/ml heparin. Substrate stock solutions were prepared in DMSO. The final concentration of substrate ranged from 5 μM to […], the concentration of DMSO in the assay was less than 5%. Tryptase concentration was 5 nM.
(§3) Hydrolysis of ACC substrates was monitored fluorometrically with an excitation wavelength of 380 nm and emission wavelength of 450 nm on a Fluoromax-2 spectrofluorimeter. The amino-terminus of each polypeptide was acetylated.
(§4) To quantitate tryptase βI and βII dependence on extended substrate specificity, several peptide substrates were synthesized and the kinetic constants determined for each of the enzymes. […] All of these effects are manifested in the Km term, not the kcat term.
(§5) Kinetic parameters were independently obtained for both recombinant β-I and β-II tryptases against rational substitutions in the substrates at P2-P4 positions.

[2] = biological target: T2, recombinant human β-I tryptase (skin tryptase) (Homo sapiens, UniProt Q15661); assay: Single substrate kinetic analysis of fluorogenic ACC substrates, skin (β-I) tryptase
T2 construct: Secreted mature βI- and βII-tryptases were purified to homogeneity; made in house; host or cells: Pichia pastoris
T2 sequence (Q15661 31-275): as the sequence (Q15661 31-275 N132K) above, with K102N counted along it
Description: as §1, §2, §3, §4, §5

[3] = tested on: non-tryptase proteolysis in human serum; assay: Non-tryptase proteolytic activities in serum with protease inhibitors (FIG. 9); details: 25 μg/ml, 30 minutes at room temperature, Ac-PRNK-ACC 100 μM
Description: Human recombinant β-I tryptase (Promega) was two-fold serially diluted in human serum from 10,000 pg to 190 pg/ml. Aprotinin, Soybean trypsin inhibitor (SBTI) or anti-trypsin was added to each dilution at 25 μg/ml and allowed to incubate at room temperature for 30 minutes. An uninhibited serum standard curve was similarly created. 100 μl of each treated and untreated serum dilution was pipetted in triplicate to a microtiter well plate. Ac-PRNK-ACC (SEQ. ID. NO: 12) was added to 100 μM and the plate incubated at room temperature for 10 minutes prior to reading at an excitation wavelength of 355 nm and emission wavelength of 460 nm.

[4] = Lung (β-II) Tryptase, 30° C., 100 mM HEPES pH 7.5, 10% glycerol, 0.1 mg/ml heparin
[5] = Skin (β-I) Tryptase, 30° C., 100 mM HEPES pH 7.5, 10% glycerol, 0.1 mg/ml heparin

Row | Molecule | Km [1, 4] [µM] | kcat [1, 4] [s⁻¹] | Km [2, 5] [µM] | kcat [2, 5] [s⁻¹] | effect on intrinsic fluorescence associated with non-tryptase proteolysis in serum [3] | activity relative to Ac-PRNK-ACC substrate (kcat/Km) ([1]; tryptase βII, range stated over tryptase βI and βII) | activity relative to Ac-PRNK-ACC substrate (kcat/Km) ([2]; tryptase βI, range stated over tryptase βI and βII)
1 | Ac-PANK-ACC: acetylated tetrapeptide P-A-N-K with C-terminal 7-amino-4-carbamoylmethyl-coumarin leaving group | 110 ± 9.8 | 20.27 ± 0.48 | 133 ± 15.6 | 19.06 ± 0.64 |  |  | 
2 | aprotinin |  |  |  |  | significantly and specifically diminished |  | 
3 | CC(=O)N1CCC[C@H]1C(=O)N[C@@H](CCCNC(=N)N)C(=O)N[C@@H](CC(N)=O)C(=O)N[C@@H](CCCCN)C(=O)Nc1ccc2c(CC(N)=O)cc(=O)oc2c1 [Ac-PRNK-ACC, Acetyl-Prolyl-Arginyl-Asparaginyl-Lysyl-aminoacetamide coumarin] (Ac-PRNK-{ACC}) | 8.9 ± 0.9 |  | 14.5 ± 1.9 |  |  |  | 
4 | CC(=O)N1CCC[C@H]1C(=O)N[C@@H](CCCNC(=N)N)C(=O)N[C@@H](CC(N)=O)C(=O)N[C@@H](CCCNC(=N)N)C(=O)Nc1ccc2c(CC(N)=O)cc(=O)oc2c1 [Ac-PRNR-ACC] (Ac-PRNR-{ACC}) | 16.5 ± 2.7 |  | 18.6 ± 2.6 |  |  | 70-90% | 70-90%
5 | CC(=O)N1CCC[C@H]1C(=O)N[C@@H](CCCNC(=N)N)C(=O)N[C@H](C(=O)N[C@@H](CCCCN)C(=O)Nc1ccc2c(CC(N)=O)cc(=O)oc2c1)[C@@H](C)O [Ac-PRTK-ACC] (Ac-PRTK-{ACC}) | 14.7 ± 1.4 |  | 23.4 ± 2.3 |  |  |  | 
